Data set [1] is described as follows: Compound solubilisation. The class given is physicochemical. The note with it: for solubility (in words): solvent as stated in the sentence. How it is done:
The commercial compounds were solubilized in aqueous solutions to reach a 50 mM concentration, taking advantage of the pH and concentration-solubility profile estimated by Chemicalize (https://chemicalize.com/ developed by ChemAxon). When the molecules resulted partially or completely insoluble, the pH was adjusted based on their estimated pH-solubility profiles using either HCl or NaOH concentrated stocks. A cycle of sonication with an ultrasonic bath (Bormac CE-5700, 41300303) was performed for those compounds that resulted insoluble after pH adjustment. If sonication was insufficient, compounds were also heated in a thermoblock at 60 °C for ten minutes. For the compounds that were still not soluble, D6-DMSO was added. For some compounds, complete solubilization required to decrease the concentration of the stock solution. In Table 2 are reported the compounds that required dilution and/or addition of DMSO for solubilization.
(§1) The in-house synthesized compounds were solubilized at 100 mM concentration in D6-DMSO. We indicated with an asterisk (*) the in-house synthesized compounds to distinguish them from the commercial ones. […]. Molecules that resulted partially or completely insoluble were subjected to the same procedure followed for the commercial molecules, except for pH adjustments. The compounds that were highly insoluble were produced as TRIS salts.

Data set [2] in a line: Stability of dissolved compound by NMR and liquid chromatography. The class given is physicochemical. Here is the method: as §1
In data set [3] the target is T1, IsdB:Hb complex (Y165A IsdB, oxyHb) (Homo sapiens, UniProt P68871+P69905).
T1 construct: made in house
As to the kind of experiment: IsdB-based immunoassay for IsdB:Hb complex formation (screening of potential inhibitors). The data set is classed as binding, Staphylococcus aureus IsdB; human Hb. The note with it: 30 µM oxyHb; for average percent of Hb bound to IsdB: commercial compounds at 1 mM, relative to negative control; for percentage of IsdB-bound Hb: in-house synthesized compounds at 1 mM. Here is the method: Commercial and synthesized compounds were tested at 1 mM concentration.
Figure 6 Screening of the in silico identified compounds by the IsdB-based immunoassay. […] The lines at 100% and 50%, drawn as reference, were calculated from the absorbance signal at 450 nm measured on the negative control well (i.e. oxyHb incubated without the addition of compounds). Each measurement is the average of at least 2 replicates.
Each measurement is the average of at least two replicates. […] Color code indicates derivatives from a common parent compound indicated with the asterisk.

Data set [4] addresses HbCO (Homo sapiens, UniProt P68871+P69905). The data set is described as follows: STD-NMR binding to Hb. The conditions noted are these: 20 µM Hb (heme), 25 °C; for quality of the peaks in the STD spectrum: 1 mM commercial compound; for binding to HbCO by STD-NMR (peaks in STD spectra): 1 mM compound.
Data set [5] has as its target oxyHb (Homo sapiens, UniProt P68871+P69905). The data set is described as follows: Effect of compounds on the oxyHb absorption spectrum (oxidation of oxyHb to metHb). The note with it: 1 mM compound, 10 µM oxyHb, 4 °C. The class given is biochemical. How it is done: Absorption spectra of the commercial compounds alone or in the presence of oxyHb were recorded with a microplate reader (TECAN Spark® 10 M) in a 384-well, UV-transparent microplate (Greiner UV-STAR® plate—781801). The compounds were diluted in binding buffer to a 2 mM concentration, and the pH of the solutions was adjusted in the range 6.5–7.5. Compounds were then tested at 1 mM concentration to assess for any absorbance around 450 nm that might interfere with the immunoassay. The effect of compounds on the oxyHb spectrum was assessed under the same conditions in the presence of 10 µM oxyHb. […] All the incubation steps were performed at 4 °C, as in the immunoassay. Spectra were subtracted from the contribution of the blank and the compound.
Absorption spectra of the compounds in solution were collected between 350 and 700 nm to exclude any interference with the determination of Hb oxidation (vide infra) and with the absorbance measurement at 450 nm of the immunoassay (Fig. S4). The absorption spectra of Hb solutions were collected in the Q bands region, between 450 and 650 nm, and compounds were added at a final concentration of 1 mM and incubated for 2 h at 4 °C, before the acquisition of the final spectrum (Fig. S5). These Hb absorption bands are sensitive to the redox status of the protein and thus allowed to ascertain whether the tested compounds interfere with the analysis by accelerating the oxidation of oxyHb to metHb, which in turn is susceptible to heme extraction by IsdB, thus introducing an artifact in the assay.

[6] abbreviates: 50% D6-DMSO final concentration.

≈ marks a conversion by molar mass, not a printed value. Entries after “also recorded” stand apart in the source; their conditions may differ. Where two headings read alike, the source gives them in different places. Where a SMILES comes first, the peptide text is derived from it. The star is where a group is joined. Boc = CC(C)(C)OC(=O)*

For the molecule `O=C(CSc1nnc(-c2c[nH]c3ccccc23)o1)Nc1ccc(C(=O)O)cc1` [Compound C35], the solubility in data set [1] (aqueous buffer, kinetic from dmso stock, 50 mM HEPES buffer, pH 7.6, diluted from 100 mM DMSO stock, read-out: concentration at which the compound was soluble) was found to be 500 µM (≈ 197 µg/mL). The “solubility (in words)” value in data set [1] was “poorly soluble in water”. In data set [2] (dissolved in D6-DMSO), the “stability by NMR and liquid chromatography” value is given as “stable”. The stability in solution entry in data set [2] (dissolved in alkaline aqueous solution) is listed as “underwent a rearrangement”.
Take `Cn1cc(-c2nnc(SCC(=O)Nc3ccc(C(=O)O)cc3)o2)c2ccccc21` [Compound C61]: the “solubility (in words)” value in data set [1] was “poorly soluble”.
For `NC(=O)NC(=O)CCCSc1nnc(N)s1` [Compound C44], in data set [3], the “average percent of Hb bound to IsdB” value is “lower than 55%” and the “percentage of IsdB-bound Hb” value was “above 60%”. Also, in data set [1] (setting [6]), the “Stock H2O” value is 44 (50% D6-DMSO final concentration) mM. Also, the “solubility (in words)” value in data set [1] was “solubility issues”. Moreover, the “solubility (in words)” value in data set [1] (listed as C44*) is “difficult to dissolve in DMSO”. In data set [4], the “quality of the peaks in the STD spectrum” value is “very weak peaks” and the “binding to HbCO by STD-NMR (peaks in STD spectra)” value (“binding to HbCO by STD-NMR” for short) was “gave peaks in the STD spectra”.
`NNC(=O)C(=NNc1ccccc1C(=O)NN)C(=O)NN` [Compound C17]: the “oxidation of Hb upon a 2-h incubation” value in data set [5] is reported as “small effects”. Besides, the “Stock H2O” value in data set [1] (setting [6]) is 25 (50% D6-DMSO final concentration) mM.
On to `COC(=O)c1[nH]n(-c2ccc(C(=O)O)cc2)c(=O)c1CCO` [Compound C53], for which, in data set [3], the “average percent of Hb bound to IsdB” value is “lower than 55%” and the “percentage of IsdB-bound Hb” value is given as “above 60%”. For the same molecule, the “solubility (in words)” value in data set [1] is given as “solubility issues”. In data set [4], the “quality of the peaks in the STD spectrum” value was “very weak peaks” and the “binding to HbCO by STD-NMR” value is recorded as “gave peaks in the STD spectra”. Further, the “binding to HbCO by STD-NMR” value in data set [4] (listed as C53*) is “confirmed binding to HbCO”.
Take `NC(=O)COc1ccc(CNC2CCCN(c3cccnn3)C2)cc1` (centres unmarked) [Compound C50]: the “average percent of Hb bound to IsdB” value in data set [3] is recorded as “lower than 55%”. Also, the “binding to HbCO by STD-NMR” value in data set [4] is “no peaks were observed”.
`NC(=O)Cn1cc(NC(=O)NC2CCC(O)CC2)cn1` (centres unmarked) [Compound C34]: the “Stock H2O” value in data set [1] is on record as 33 (50% D6-DMSO final concentration) mM.
Regarding `Cc1[nH]ncc1C(=O)NCc1cc(OC2CCNC2)ccn1` (centres unmarked) [Compound C41], the “average percent of Hb bound to IsdB” value in data set [3] was “lower than 55%”. In data set [4], the “quality of the peaks in the STD spectrum” value is reported as “very weak peaks” and the “binding to HbCO by STD-NMR” value was “gave peaks in the STD spectra; also recorded: only a methyl group was binding to Hb”.
Take `NC(=O)C1CCN(CC(O)COc2ccc(OCC(O)CN3CCC(C(N)=O)CC3)cc2)CC1` (centres unmarked) [Compound C12]: the “oxidation of Hb upon a 2-h incubation” value in data set [5] is reported as “small effects”.
As to `O=C(O)Cn1cc(-c2nnc(SCC(=O)Nc3ccc(C(=O)O)cc3)o2)c2ccccc21` [Compound C65], the “solubility (in words)” value in data set [1] is listed as “poorly soluble”.
`CC(C)CC(NC(=O)C(Cc1ccccc1)NC(=O)CNC(=O)CNC(=O)OC(C)(C)C)C(=O)NC(CCCN=C(N)N)C(=O)O` (centres unmarked) [Compound C28] (Boc-GGFLR-OH; configuration not given here): the “oxidation of Hb upon a 2-h incubation” value in data set [5] was “small effects”. Besides, the “Stock H2O” value in data set [1] (setting [6]) is 25 (50% D6-DMSO final concentration) mM.
As to `O=C(CSc1nnc(-c2c[nH]c3ncccc23)o1)Nc1ccc(C(=O)O)cc1` [Compound C63], the “solubility (in words)” value in data set [1] is “poorly soluble”.
On to `CC(C)(Sc1nnc(-c2c[nH]c3ccccc23)o1)C(=O)Nc1ccc(C(=O)O)cc1` [Compound C59], for which the “solubility (in words)” value in data set [1] is “poorly soluble”.
